Molecular target: SOS1:KRAS (G12C) interaction (Homo sapiens (Human), UniProt Q07889)
Assay: SOS1 KRas(G12C) FRET Assay
Type: binding
Conditions: 0.5 nM His10-SOS1 (res. 564-1049), 2.5 nM GST-KRAS G12C (res. 1-169), 2 hrs at RT
Experimental: Inhibition of the SOS 1:KRAS interaction was measured using purified GST-tagged KRAS (res. 1-169, G12C, purified based on Hillig, et al., Proc Natl Acad Sci USA (2019); 116(7):2551-2560) and recombinant His10-SOS1 (res. 564-1049; purified based on Hillig, et al.). The final assay was performed at 20 uL with 0.5 nM SOS1 protein and 2.5 nM KRAS protein in a buffer of PBS, 0.1% BSA, 5 mM MgCh, 0.0025% Igepal, 100 mM KF, 5 mM DTT in a white 384 square well OptiPlate (PerkinElmer, Cat. 6007290). A 2x KRAS working solution was prepared in an assay buffer containing 5 nM GST-KRAS G12C and 2 nM anti-GST-Eu(K) (Cisbio, Cat. 61GSTKLA) and pre-incubated for 15 minutes at 25° C. […] The final DMSO concentration is 0.5%. Plates were incubated at RT for 2 hrs before the FRET signal was measured using Envision at emission 665 nm and 615 nm. FRET signal was converted to percentage of protein-protein interaction using the following equation:
• C: signal with compound treatment • P: signal for positive control (DMSO) • N: signal for negative control (no SOS1 added)
IC50 and Hill coefficients were obtained using Graph Pad Prism (Graph Pad software, Inc, USA) with non-linear regression analysis.

Sequence of SOS1:KRAS (G12C) interaction (Q07889 564-1049, stated change not applied): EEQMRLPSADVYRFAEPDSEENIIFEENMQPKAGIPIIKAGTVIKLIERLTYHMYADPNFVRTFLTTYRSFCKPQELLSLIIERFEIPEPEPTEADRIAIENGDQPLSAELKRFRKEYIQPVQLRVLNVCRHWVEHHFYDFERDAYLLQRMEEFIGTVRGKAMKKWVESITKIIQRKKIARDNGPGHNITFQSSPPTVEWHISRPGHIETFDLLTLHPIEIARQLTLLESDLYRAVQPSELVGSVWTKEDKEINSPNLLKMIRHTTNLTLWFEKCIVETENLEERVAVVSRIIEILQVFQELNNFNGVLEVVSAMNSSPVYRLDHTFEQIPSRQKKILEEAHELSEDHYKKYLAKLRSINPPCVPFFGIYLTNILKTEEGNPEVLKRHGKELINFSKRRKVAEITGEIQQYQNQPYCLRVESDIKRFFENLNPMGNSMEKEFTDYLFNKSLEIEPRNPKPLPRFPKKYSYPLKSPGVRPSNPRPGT

| Compound | IC50 [nM] |
| --- | --- |
| C[C@@H](NC(=O)c1cn([C@@H]2CC23CC3)c(=O)cc1N[C@H]1[C@@H]2CN(C)C[C@@H]21)c1cccc(C(F)(F)F)c1F (single isomer, unassigned) [Example 218] | 15.8 |
| C[C@@H](NC(=O)c1cn([C@H]2CC23CC3)c(=O)cc1N[C@H]1[C@@H]2CN(C)C[C@@H]21)c1cccc(C(F)(F)F)c1F (single isomer, unassigned) [Example 219] | 26.9 |
| C[C@@H](NC(=O)c1cn([C@H]2C[C@@H](C3CC3)C2)c(=O)cc1N[C@H]1[C@@H]2CN(C)C[C@@H]21)c1cccc(C(F)F)c1F (single isomer, unassigned) [Example 248] | 24.1 |
| C[C@@H](NC(=O)c1cn([C@H]2C[C@H](C3CC3)C2)c(=O)cc1N[C@H]1[C@@H]2CN(C)C[C@@H]21)c1cccc(C(F)F)c1F (single isomer, unassigned) [Example 249] | 16.5 |
| C[C@@H](NC(=O)c1cn([C@@H]2CC23CC3)c(=O)cc1N[C@H]1[C@@H]2CN(C)C[C@@H]21)c1cccc(C(C)(F)F)c1F (single isomer, unassigned) [Example 254] | 13 |
| C[C@@H](NC(=O)c1cn([C@H]2CC23CC3)c(=O)cc1N[C@H]1[C@@H]2CN(C)C[C@@H]21)c1cccc(C(C)(F)F)c1F (single isomer, unassigned) [Example 255] | 27 |
| C[C@@H](NC(=O)c1cn([C@@H]2CCC2(F)F)c(=O)cc1N[C@H]1[C@@H]2CN(C)C[C@@H]21)c1cccc(C(F)(F)F)c1 (single isomer, unassigned) [Example 256] | 13.9 |
| C[C@@H](NC(=O)c1cn([C@H]2CCC2(F)F)c(=O)cc1N[C@H]1[C@@H]2CN(C)C[C@@H]21)c1cccc(C(F)(F)F)c1 (single isomer, unassigned) [Example 257] | 85.8 |
| CC(=O)N1CC[C@](C)(n2cc(C(=O)N[C@H](C)c3cccc(C(F)F)c3F)c(NC3CCN(C)CC3)cc2=O)C1 (single isomer, unassigned) [Example 265] | 27.8 |
| CC(=O)N1CC[C@@](C)(n2cc(C(=O)N[C@H](C)c3cccc(C(F)F)c3F)c(NC3CCN(C)CC3)cc2=O)C1 (single isomer, unassigned) [Example 266] | 1.4 |
| C[C@@H](NC(=O)c1cn([C@H]2C[C@@H]2C)c(=O)cc1N[C@H]1[C@@H]2CN(C)C[C@@H]21)c1cccc(C(F)F)c1F (single isomer, unassigned) [Example 271] | 36.9 |
| C[C@@H]1C[C@H]1n1cc(C(=O)N[C@H](C)c2cccc(C(F)F)c2F)c(N[C@H]2[C@@H]3CN(C)C[C@@H]32)cc1=O (single isomer, unassigned) [Example 272] | 29.1 |
| C[C@@H]1C[C@@H]1n1cc(C(=O)N[C@H](C)c2cccc(C(F)F)c2F)c(N[C@H]2[C@@H]3CN(C)C[C@@H]32)cc1=O (single isomer, unassigned) [Example 273] | 15.7 |
| C[C@@H](NC(=O)c1cn([C@@H]2C[C@@H]2C)c(=O)cc1N[C@H]1[C@@H]2CN(C)C[C@@H]21)c1cccc(C(F)F)c1F (single isomer, unassigned) [Example 274] | 10.6 |
| Cc1c([C@@H](C)NC(=O)c2cn(C3CCOCC3)c(=O)cc2N[C@H]2CC[C@@]23CCCN(C)C3)cccc1C(F)(F)F (single isomer, unassigned) [Example 296] | 252 |
| Cc1c([C@@H](C)NC(=O)c2cn(C3CCOCC3)c(=O)cc2N[C@@H]2CC[C@]23CCCN(C)C3)cccc1C(F)(F)F (single isomer, unassigned) [Example 297] | 33.4 |
| Cc1c([C@@H](C)NC(=O)c2cn(C3CCOCC3)c(=O)cc2N[C@H]2CC[C@]23CCCN(C)C3)cccc1C(F)(F)F (single isomer, unassigned) [Example 298] | 88.1 |
| Cc1c([C@@H](C)NC(=O)c2cn(C3CCOCC3)c(=O)cc2N[C@@H]2CC[C@@]23CCCN(C)C3)cccc1C(F)(F)F (single isomer, unassigned) [Example 299] | 51.3 |

Other lines, results leading:

| IC50 [nM] | Compound |
| --- | --- |
| 10.6 | C[C@@H](NC(=O)c1cn(C2CCC2)c(=O)cc1N[C@H]1[C@@H]2CC[C@H]1CN(C)C2)c1cccc(C(F)F)c1F (single isomer, unassigned) [Example 214] |
| 68.2 | C[C@@H](NC(=O)c1cn(C2CCC2)c(=O)cc1N[C@@H]1[C@@H]2CC[C@H]1CN(C)C2)c1cccc(C(F)F)c1F (single isomer, unassigned) [Example 215] |
| 9.2 | C[C@@H](NC(=O)c1cn([C@@]2(C(F)(F)F)CCOC2)c(=O)cc1N[C@H]1[C@@H]2CN(C)C[C@@H]21)c1cccc(C(F)F)c1F (single isomer, unassigned) [Example 234] |
| 142 | C[C@@H](NC(=O)c1cn([C@]2(C(F)(F)F)CCOC2)c(=O)cc1N[C@H]1[C@@H]2CN(C)C[C@@H]21)c1cccc(C(F)F)c1F (single isomer, unassigned) [Example 235] |
| 45.3 | C[C@@H](NC(=O)c1cn(C2(C(F)F)CC2)c(=O)cc1N[C@H]1C[C@H]2C[C@@H]1CN2C)c1cccc(C(F)F)c1F (single isomer, unassigned) [Example 236] |
| 19.4 | C[C@@H](NC(=O)c1cn(C2(C(F)F)CC2)c(=O)cc1N[C@H]1C[C@@H]2C[C@H]1CN2C)c1cccc(C(F)F)c1F (single isomer, unassigned) [Example 237] |
| 29.3 | C[C@@H](NC(=O)c1cn(C2(C(F)F)CC2)c(=O)cc1N[C@@H]1C[C@@H]2C[C@H]1CN2C)c1cccc(C(F)F)c1F (single isomer, unassigned) [Example 238] |
| 21.5 | C[C@@H](NC(=O)c1cn(C2(C(F)F)CC2)c(=O)cc1N[C@@H]1C[C@H]2C[C@@H]1CN2C)c1cccc(C(F)F)c1F (single isomer, unassigned) [Example 239] |
| 44.2 | C[C@@H](NC(=O)c1cn(C2(C(F)F)CC2)c(=O)cc1N[C@H]1[C@@H]2CC[C@H]1CN(C)C2)c1cccc(C(F)F)c1F (single isomer, unassigned) [Example 245] |
| 16.1 | C[C@@H](NC(=O)c1cn(C2(C(F)F)CC2)c(=O)cc1N[C@@H]1[C@@H]2CC[C@H]1CN(C)C2)c1cccc(C(F)F)c1F (single isomer, unassigned) [Example 246] |
| 21.7 | C[C@@H](NC(=O)c1cn(C2(C(F)F)CC2)c(=O)cc1N[C@@H]1[C@@H]2C[C@H]1CN(C)C2)c1cccc(C(F)F)c1F (single isomer, unassigned) [Example 250] |
| 34.1 | C[C@@H](NC(=O)c1cn(C2(C(F)F)CC2)c(=O)cc1N[C@H]1[C@@H]2C[C@H]1CN(C)C2)c1cccc(C(F)F)c1F (single isomer, unassigned) [Example 251] |
| 17 | C[C@@H](NC(=O)c1cn(C2(C(F)F)CCC2)c(=O)cc1N[C@@H]1[C@@H]2C[C@H]1CN(C)C2)c1cccc(C(F)F)c1F (single isomer, unassigned) [Example 252] |
| 43.1 | C[C@@H](NC(=O)c1cn(C2(C(F)F)CCC2)c(=O)cc1N[C@H]1[C@@H]2C[C@H]1CN(C)C2)c1cccc(C(F)F)c1F (single isomer, unassigned) [Example 253] |
| 76.3 | C[C@@H](NC(=O)c1cn(C2CC(F)(F)C2)c(=O)cc1N[C@H]1[C@@H]2CC[C@H]1CN(C)C2)c1cccc(C(F)F)c1F (single isomer, unassigned) [Example 258] |
| 10.4 | C[C@@H](NC(=O)c1cn(C2CC(F)(F)C2)c(=O)cc1N[C@@H]1[C@@H]2CC[C@H]1CN(C)C2)c1cccc(C(F)F)c1F (single isomer, unassigned) [Example 259] |
| 12.4 | C[C@@H](NC(=O)c1cn(C2(CF)CC2)c(=O)cc1N[C@H]1[C@@H]2CC[C@H]1CN(C)C2)c1cccc(C(F)F)c1F (single isomer, unassigned) [Example 260] |
| 41.4 | C[C@@H](NC(=O)c1cn(C2(CF)CC2)c(=O)cc1N[C@@H]1[C@@H]2CC[C@H]1CN(C)C2)c1cccc(C(F)F)c1F (single isomer, unassigned) [Example 261] |
| 361 | CN1C[C@@H]2[C@H](C1)[C@H]2Nc1cc(=O)n(C2(C(F)F)CC2)cc1C(=O)N[C@@H](c1cccc(C(F)F)c1F)C(F)(F)F (single isomer, unassigned) [Example 275] |
| > 10000 | CN1C[C@@H]2[C@H](C1)[C@H]2Nc1cc(=O)n(C2(C(F)F)CC2)cc1C(=O)N[C@H](c1cccc(C(F)F)c1F)C(F)(F)F (single isomer, unassigned) [Example 276] |
| 9.46 | C[C@@H](NC(=O)c1cn(C2(C(F)F)CC2)c(=O)cc1N[C@H]1CCNC2(CC2)C1)c1cccc(C(F)F)c1F (single isomer, unassigned) [Example 277] |
| 24.1 | C[C@@H](NC(=O)c1cn(C2(C(F)F)CC2)c(=O)cc1N[C@@H]1CCNC2(CC2)C1)c1cccc(C(F)F)c1F (single isomer, unassigned) [Example 278] |
| 15.8 | C[C@@H](NC(=O)c1cn(C2(C(F)F)CC2)c(=O)cc1N[C@H]1[C@@H]2CC[C@H]1CNC2)c1cccc(C(F)F)c1F (single isomer, unassigned) [Example 280] |
| 18.4 | C[C@@H](NC(=O)c1cn(C2(C(F)F)CC2)c(=O)cc1N[C@@H]1[C@@H]2CC[C@H]1CNC2)c1cccc(C(F)F)c1F (single isomer, unassigned) [Example 281] |

— patent US20230348424A1, “HETEROCYCLIC COMPOUNDS AND METHODS OF USE” (Schrödinger, Inc., priority 2022, published 2023)
